This passage reports MIC results from ChEMBL document CHEMBL1149714 (2007).

Common to all, as to assay type: functional
The subject of experiment [1] is Pseudomonas aeruginosa. The experiment is described as follows: Antibacterial activity against Pseudomonas aeruginosa SR-5393 after 20 hrs by agar dilution method. (In general: Agar dilution tests growth on a series of plates holding different concentrations.)
In experiment [2] the test system is Streptococcus pneumoniae. As to the kind of experiment: Antibacterial activity against penicillin resistant Streptococcus pneumoniae SR-16675 after 20 hrs by agar dilution method.
Experiment [3] relates to Escherichia coli. As to the kind of experiment: Antibacterial activity against Toho 2 (ESBL) producing Escherichia coli SR-21003 after 20 hrs by agar dilution method.
For experiment [4], the system named is Haemophilus influenzae. The experiment is described as follows: Antibacterial activity against Haemophilus influenzae ATCC 49766 after 20 hrs by agar dilution method. Particulars: ATCC 49766, 20 h.
The subject of experiment [5] is Enterobacter cloacae. As to the kind of experiment: Antibacterial activity against AmpC producing Enterobacter cloacae SR-4321 after 20 hrs by agar dilution method.
The test system of experiment [6] is Staphylococcus aureus. The experiment is described as follows: Antibacterial activity against […] Staphylococcus aureus SMITH after 20 hrs by agar dilution method.
In experiment [7] the test system is Enterobacter cloacae. The experiment is described as follows: Antibacterial activity against Enterobacter cloacae ATCC 13047 after 20 hrs by agar dilution method. Particulars: ATCC 13047, 20 h.
Experiment [8] concerns Pseudomonas aeruginosa. The experiment is described as follows: Antibacterial activity against AmpC hyperproducing Pseudomonas aeruginosa SR24-12 after 20 hrs by agar dilution method.
Experiment [9] deals with Haemophilus influenzae. The experiment is described as follows: Antibacterial activity against beta-lactamase negative ampicillin resistant Haemophilus influenzae SR-11435 after 20 hrs by agar dilution method.
The test system of experiment [10] is Pseudomonas aeruginosa. The experiment is described as follows: Antibacterial activity against Pseudomonas aeruginosa SR24 after 20 hrs by agar dilution method.
The subject of experiment [11] is Escherichia coli. As to the kind of experiment: Antibacterial activity against Escherichia coli NIHJJC2 after 20 hrs by agar dilution method.
Experiment [12] relates to Moraxella catarrhalis. As to the kind of experiment: Antibacterial activity against Moraxella catarrhalis ATCC 43617 after 20 hrs by agar dilution method. Particulars: ATCC 43617, 20 h.
In experiment [13] the test system is Pseudomonas aeruginosa. As to the kind of experiment: Antibacterial activity against Imipenem resistant Pseudomonas aeruginosa SR-6554 after 20 hrs by agar dilution method.

≈ marks a conversion by molar mass, not a printed value. A value given as a limit tells only on which side of the number the result lay.

Take `CC[C@H](O/N=C(\C(=O)N[C@@H]1C(=O)N2C(C(=O)[O-])=C(C[n+]3cccc4c3ccn4CCCNC)CS[C@H]12)c1nc(N)sc1Cl)C(=O)O`: the MIC in experiment [1] amounted to 4 µg/mL (≈ 5.79 µM); in [2] it was 4 µg/mL (≈ 5.79 µM); in experiment [3], 4 µg/mL (≈ 5.79 µM); in experiment [4], 0.032 µg/mL (≈ 0.0463 µM); in [5] it was 4 µg/mL (≈ 5.79 µM); in experiment [6], 1 µg/mL (≈ 1.45 µM). The MIC in [7] came out at 1 µg/mL (≈ 1.45 µM); in experiment [8], 4 µg/mL (≈ 5.79 µM); in experiment [9], 0.063 µg/mL (≈ 0.0911 µM); in experiment [10], 1 µg/mL (≈ 1.45 µM); in experiment [11] it was 1 µg/mL (≈ 1.45 µM); in [12], 0.016 µg/mL (≈ 0.0231 µM). The compound also displayed an MIC in [13] of 16 µg/mL (≈ 23.1 µM).

Regarding `CNCCCn1cnc2c1ccc[n+]2CC1=C(C(=O)[O-])N2C(=O)[C@@H](NC(=O)/C(=N\OC(C)(C)C(=O)O)c3csc(N)n3)[C@H]2SC1`, the MIC in experiment [1] was 4 µg/mL (≈ 6.08 µM); in experiment [3], 2 µg/mL (≈ 3.04 µM); in experiment [5] it was 128 µg/mL (≈ 195 µM); in [7], 4 µg/mL (≈ 6.08 µM); in experiment [8] it was greater than 128 µg/mL; in [10], 1 µg/mL (≈ 1.52 µM). The MIC in [11] stood at 0.5 µg/mL (≈ 0.76 µM); in experiment [13], 128 µg/mL (≈ 195 µM).

Take `CNCCCn1ccc2c1ccc[n+]2CC1=C(C(=O)[O-])N2C(=O)[C@@H](NC(=O)/C(=N\O[C@@H](C)C(=O)O)c3nc(N)sc3F)[C@H]2SC1`: the MIC in [1] is 8 µg/mL (≈ 12.1 µM); in experiment [2] it was 16 µg/mL (≈ 24.2 µM); in experiment [3], 16 µg/mL (≈ 24.2 µM); in experiment [4], 0.063 µg/mL (≈ 0.0954 µM); in [5], greater than 128 µg/mL; in experiment [6], 2 µg/mL (≈ 3.03 µM). For the same compound, the MIC in experiment [7] is 1 µg/mL (≈ 1.51 µM); in [8] it was greater than 128 µg/mL; in [9], 0.25 µg/mL (≈ 0.378 µM); in [10], 1 µg/mL (≈ 1.51 µM); in experiment [11], 0.031 µg/mL (≈ 0.0469 µM); in [12], 0.5 µg/mL (≈ 0.757 µM). Also, the MIC in [13] amounted to 128 µg/mL (≈ 194 µM).

As to `CNCCCn1ccc2c1ccc[n+]2CC1=C(C(=O)[O-])N2C(=O)[C@@H](NC(=O)/C(=N\OC3(C(=O)O)CC3)c3nc(N)sc3Cl)[C@H]2SC1`, the MIC in experiment [1] came out at 4 µg/mL (≈ 5.8 µM); in experiment [2] it was 4 µg/mL (≈ 5.8 µM); in experiment [3], 4 µg/mL (≈ 5.8 µM); in experiment [4], 0.016 µg/mL (≈ 0.0232 µM); in [5], 2 µg/mL (≈ 2.9 µM); in experiment [6] it was 1 µg/mL (≈ 1.45 µM). In addition, the MIC came to 0.5 µg/mL (≈ 0.726 µM) in experiment [7]; 4 µg/mL (≈ 5.8 µM) in [8]; 0.032 µg/mL (≈ 0.0464 µM) in [9]; 1 µg/mL (≈ 1.45 µM) in experiment [10]; 0.5 µg/mL (≈ 0.726 µM) in [11]; 0.008 µg/mL (≈ 0.0116 µM) in experiment [12]. Besides, the MIC in [13] was 16 µg/mL (≈ 23.2 µM).

Take `CNCCCn1ccc2c1ccc[n+]2CC1=C(C(=O)[O-])N2C(=O)[C@@H](NC(=O)/C(=N\O[C@@H](C)C(=O)O)c3nc(N)sc3Br)[C@H]2SC1`: the MIC amounted to 4 µg/mL (≈ 5.54 µM) in experiment [1]; 4 µg/mL (≈ 5.54 µM) in experiment [2]; 4 µg/mL (≈ 5.54 µM) in [3]; 0.063 µg/mL (≈ 0.0873 µM) in experiment [4]; 4 µg/mL (≈ 5.54 µM) in experiment [5]; 1 µg/mL (≈ 1.39 µM) in [6]. The MIC in experiment [7] amounted to 1 µg/mL (≈ 1.39 µM); in experiment [8] it was 4 µg/mL (≈ 5.54 µM); in [9], 0.125 µg/mL (≈ 0.173 µM); in [10], 1 µg/mL (≈ 1.39 µM); in experiment [11], 0.5 µg/mL (≈ 0.693 µM); in experiment [12], 0.016 µg/mL (≈ 0.0222 µM). This compound registered an MIC in experiment [13] of 8 µg/mL (≈ 11.1 µM).

For the compound `CNCCCn1ccc2c1ccc[n+]2CC1=C(C(=O)[O-])N2C(=O)[C@@H](NC(=O)/C(=N\O[C@H](C(=O)O)C(C)C)c3nc(N)sc3Cl)[C@H]2SC1`, the MIC in [1] was 8 µg/mL (≈ 11.3 µM); in experiment [2] it was 4 µg/mL (≈ 5.67 µM); in experiment [3], 8 µg/mL (≈ 11.3 µM); in experiment [4] it was 0.032 µg/mL (≈ 0.0454 µM); in experiment [5] it was 8 µg/mL (≈ 11.3 µM); in experiment [6] it was 1 µg/mL (≈ 1.42 µM). Moreover, the MIC in experiment [7] is 4 µg/mL (≈ 5.67 µM); in [8], 8 µg/mL (≈ 11.3 µM); in experiment [9] it was 0.063 µg/mL (≈ 0.0893 µM); in experiment [10], 2 µg/mL (≈ 2.84 µM); in experiment [11], 2 µg/mL (≈ 2.84 µM); in [12], 0.016 µg/mL (≈ 0.0227 µM). The compound also registered an MIC in [13] of 16 µg/mL (≈ 22.7 µM).

For the compound `CNCCCn1ccc2c1ccc[n+]2CC1=C(C(=O)[O-])N2C(=O)[C@@H](NC(=O)/C(=N\O[C@H](C)C(=O)O)c3nc(N)sc3Cl)[C@H]2SC1`, the MIC turned out to be 4 µg/mL (≈ 5.91 µM) in experiment [1]; 4 µg/mL (≈ 5.91 µM) in experiment [2]; 4 µg/mL (≈ 5.91 µM) in experiment [3]; 0.063 µg/mL (≈ 0.093 µM) in experiment [4]; 4 µg/mL (≈ 5.91 µM) in [5]; 2 µg/mL (≈ 2.95 µM) in experiment [6]. The MIC turned out to be 1 µg/mL (≈ 1.48 µM) in experiment [7]; 4 µg/mL (≈ 5.91 µM) in experiment [8]; 0.25 µg/mL (≈ 0.369 µM) in [9]; 1 µg/mL (≈ 1.48 µM) in [10]; 0.5 µg/mL (≈ 0.738 µM) in experiment [11]; 0.032 µg/mL (≈ 0.0473 µM) in experiment [12]. The compound further had an MIC in experiment [13] of 16 µg/mL (≈ 23.6 µM).

On to `CNCCCn1ccc2c1ccc[n+]2CC1=C(C(=O)[O-])N2C(=O)[C@@H](NC(=O)/C(=N\O[C@@H](C)C(=O)O)c3nc(N)sc3C)[C@H]2SC1`, for which the MIC came out at 4 µg/mL (≈ 6.09 µM) in [1]; 8 µg/mL (≈ 12.2 µM) in [2]; 32 µg/mL (≈ 48.7 µM) in experiment [3]; 0.125 µg/mL (≈ 0.19 µM) in [4]; 16 µg/mL (≈ 24.4 µM) in [5]; 4 µg/mL (≈ 6.09 µM) in experiment [6]. Further, the MIC in experiment [7] is 4 µg/mL (≈ 6.09 µM); in experiment [8], 8 µg/mL (≈ 12.2 µM); in [9] it was 2 µg/mL (≈ 3.05 µM); in experiment [10] it was 1 µg/mL (≈ 1.52 µM); in [11], 2 µg/mL (≈ 3.05 µM); in experiment [12] it was 0.5 µg/mL (≈ 0.761 µM). Besides, in experiment [13], the MIC is 64 µg/mL (≈ 97.5 µM).
